Here are results for three compounds from US10882826B2, “Quinolinone or quinazolinone comprising antibiofilm compositions, compounds and methods and uses relating thereto” (University College Cork—National University of Ireland, priority 2015, dated 2021).

Data set [1] has as its system A. fumigatus CFBRC3 biofilm. Kind of data set: A. fumigatus biofilm assay, clinical source CFBRC3. It is filed as cell-based, Aspergillus fumigatus. Conditions: biofilm from clinical source CFBRC3. On the procedure: (§1) A. fumigatus Af293 was grown on SDA in 100 ml cell culture flasks at 37° C. for 3-4 days. Conidia were harvested by flooding the surface of the agar plates with 5 ml PBS (Oxoid) containing 0.025% (v/v) Tween 20 and gently moving the liquid over the surface of the fungal lawn. The conidial suspension was transferred into a 25 ml sterile container and conidia were counted using a Neubauer haemocytometer and light microscope. Conidia were adjusted to the required concentration in RPMI 1640 (Sigma) buffered to pH 7.0 with 0.165 M MOPS immediately prior to biofilm formation analysis.
(§2) To assess biofilm formation, counted A. fumigatus spores (1×10^5) in MOPS buffered RPMI 1640 were inoculated into 24- and 96-well plates and grown overnight in the presence of 100 μM HHQ, PQS and the test compounds. After 24 hrs, the media was removed and the biofilm washed twice with distilled water after which 0.1% crystal violet (CV) was added to each well and allowed to stand for 1 hr at room temperature. The crystal violet was removed and all wells washed in a water bath by inversion. Ethanol was added to each well to solubilise biofilms after which samples were read on a spectrophotometer at Abs595 nm.
(§3) The above experiments were carried out using biofilms grown from laboratory sources of A. fumigatus. The experiments were repeated to test some compounds against biofilms grown from three different clinical sources of A. fumigatus (CFBRC1, CFBRC2 and CFBRC3. The results are shown in table 8: […]

A further data set deals with Pseudomonus aeruginosa. The data set can be described thus: Virulence of Pseudomonas aeruginosa (summary statement). The format is cell-based. Conditions: unlike HHQ and PQS. The procedure: The virulence of compounds B1, B2, C2, C3, C4, C5, C6, C8 and C11 towards P. aeruginosa was assessed using the following method:
P. aeruginosa strains were cultured as described above for 24 hr, with the addition of test compounds (10 μM). Cultures were centrifuged at 4000 rpm for 10 minutes and the cell free supernatant (5 ml) removed. Chloroform (3 ml) was added, and mixed by vortex. After centrifugation at 4000 rpm for 5 mins, the lower aqueous phase was transferred to 0.2 M HCl (2 ml). Samples were mixed by vortex and centrifuged at 4000 rpm for 5 mins to separate the phases. An aliquot of the top phase (1 ml) was removed and spectrophotmetrically analysed at OD570 nm. Phenazine production was calculated using the following formula: OD570 nm×2×17.072 and the units expressed in μg/ml. […]

For data set [2], the system named is IB3 lung epithelial cells. Kind of data set: LDH release cytotoxicity, IB3-1 cells. The format is cell-based. Conditions: 100 μM, 16 hr, percentage of 0.1% Triton (100% cytotoxicity), MeOH 3.844. The procedure:
(§4) Lactate dehydrogenase (LDH) release from IB3 lung epithelial cells was assayed as a measure of cytotoxicity using an LDH colorimetric kit (Roche) according to manufacturers' instructions. Briefly, IB3-1 cells were seeded onto 96 well plates and treated with methanol (control) and test compounds (100 μM). Following 16 hr incubation at 37° C. and 5% CO2, supernatants were removed and added to catalyst reaction mixture in a fresh plate and further incubated at 37° C. and 5% CO2 for 30 mins to allow for colour development. After this period, the plate was analysed on an ELISA plate reader at OD490 nm. Cytotoxicity was expressed as a percentage of cells treated with 0.1% (v/v) Triton (100% cytotoxicity).

The subject of data set [3] is A. fumigatus CFBRC2 biofilm. The data set can be described thus: A. fumigatus biofilm assay, clinical source CFBRC2. It is filed as cell-based, Aspergillus fumigatus. Conditions: biofilm from clinical source CFBRC2. On the procedure: as §1, §2, §3
For data set [4], the system named is A. fumigatus CFBRC1 biofilm. Kind of data set: A. fumigatus biofilm assay, clinical source CFBRC1. The format is cell-based, Aspergillus fumigatus. Conditions: biofilm from clinical source CFBRC1. The procedure: as §1, §2, §3
Data set [5] has as its system A. fumigatus Af293 biofilm. The data set can be described thus: A. fumigatus biofilm assay (crystal violet). It is filed as cell-based, Aspergillus fumigatus. The note with it: for effectiveness against fungal biofilms formed by Aspergillus fumigatus (in words): summary statement. On the procedure: A. fumigatus Af293 was routinely grown on Sabouraud dextrose agar (SDA) in 100 ml cell culture flasks at 37° C. for 3-4 days until a lawn of fungal growth was observed.
as §1, §2

For a further data set, the system named is DU145. Kind of data set: LDH release cytotoxicity, DU145. It is filed as cell-based. The note with it: DU145 cell line; percentage of 0.1% Triton. On the procedure: as §4, with “cytotoxicity). The results are detailed in table 3:” for “cytotoxicity).”
The above experiments were repeated, testing some compounds against further cell lines (A549, DU145 and HeLa).

With `CCCCCCCc1nc2ccccc2c(=O)n1N` [Compound C2], the “Relative absorbance compared to MeOH (=1), Mean” value in data set [1] was determined as 0.292; in data set [3], 0.304; in data set [4], 0.310. In the data set on Pseudomonus aeruginosa, the “effect on virulence of Pseudomonus aeruginosa (in words)” value (“effect on virulence” below) is recorded as “do not increase the virulence”. In addition, the “% Cytotoxicity, Mean (LDH release)” value in data set [2] was found to be 28.94%. Also, the “Relative absorbance at 595 nm compared to methanol control, Mean” value in data set [5] (A. fumigatus Af293 biofilm, 100 μM, 24 hrs, crystal violet) is reported as 0.37. For the same compound, the “effectiveness against fungal biofilms formed by Aspergillus fumigatus (in words)” value in data set [5] was “effective”.

Turning to `CCCCCCCc1cc(=O)c2cc(Cl)ccc2[nH]1` [Compound C4], the “effect on virulence” value with Pseudomonus aeruginosa was “do not increase the virulence”. Also, the “% Cytotoxicity, Mean (LDH release)” value in data set [2] is recorded as 15.46%. Besides, the “Cytotoxicity, Mean (LDH release)” value with DU145 is reported as 24.42%. Moreover, in data set [5], the “effectiveness against fungal biofilms formed by Aspergillus fumigatus (in words)” value is reported as “effective”.

Take `CCCCCCCc1cc(=O)c2cccc(Cl)c2[nH]1` [Compound C5]: the “Relative absorbance compared to MeOH (=1), Mean” value in data set [1] came to 0.483; in data set [3], 0.359; in data set [4] it was 0.297. Also, the “effect on virulence” value with Pseudomonus aeruginosa was “do not increase the virulence”. In addition, the “% Cytotoxicity, Mean (LDH release)” value in data set [2] came out at 31.04%.
